Source: paper PMC3640069 (PLoS ONE, 2013)
Where two headings read alike, the source gives them in different places. Marks after values point to notes of the source that are not given here.

What was measured:
SHR = tested on: SHR; parameters: method as in 5 sources, ref 30 = [30]; PMID 7673515; doi:10.3168/jds.S0022-0302(95)76745-5; 30 Nakamura Y , Yamamoto N , Sakai K , Takano T ( 1995 ) Antihypertensive effect of sour milk and peptides isolated from it that are inhibitors to angiotensin I-converting enzyme . J Dairy Sci 78 : 12 ||| ref 31 = [31]; PMID 8880454; doi:10.3168/jds.S0022-0302(96)76487-1; 31 Maeno M , Yamamoto N , Takano T ( 1996 ) Identification of an antihypertensive peptide from casein hydrolysate produced by a proteinase from Lactobacillus helveticus CP790 . J Dairy Sci 79 : 1316 – ||| ref 32 = [32]; PMID 9891260; doi:10.3168/jds.S0022-0302(98)75878-3; 32 Abubakar A , Saito T , Kittazawa H , Kawai Y , Itoh T ( 1998 ) Structural analysis of new antihypertensive peptides derived from cheese whey protein by proteinase K digestion . J Dairy Sci 81 : 313 ||| ref 33 = [33]; PMID 10794501; doi:10.1016/s0024-3205(00)00471-9; 33 Nurminen ML , Sipola M , Kaarto H , Pihlanto-Leppälä A , Piilola K , et al ( 2000 ) α-Lactorphin lowers blood pressure measured by radiotelemetry in normotensive and spontaneously hypertensive rats ||| ref 34 = [34]; 34 Miguel M , Contreras MM , Recio I , Aleixandre A ( 2009 ) ACE-inhibitory and antihypertensive properties of a bovine casein hydrolysate . Food Chemistry 112 : 211 – 214 .; conditions: cited from earlier work
[1] = normoglycemic and normotensive animal model; cited from earlier work
Description: It is necessary to evaluate the ACE-inhibitor effect on the blood glucose level of hyperpietics simultaneously since blood sugar was positively correlated with blood pressure (systolic and diastolic), and this correlation was independent of common associations with age, body mass index (BMI) and heart rate.

ACE from rabbit lungs = test: ACE inhibitory activity in vitro (HHL hydrolysis, HPLC of hippuric acid); assay type: biochemical; conditions: 10 µmol/L peptide, crude ACE extract from rabbit lung, 5 mmol/L HHL, 37°C, 10 min pre-incubation + 20 min, RP-HPLC 228 nm, mean ± SD
Procedure: ACE extracts were prepared and its activity was determined according to the method of Nakamura et al. and Wu & Ding with some modifications. Briefly, the fresh rabbit lung without connective tissues was cut into pieces and washed with precooled NaCl (0.7%) to get rid of blood. The tissue pieces were homogenized in precooled 5-fold the volume of fresh rabbit lung weight (v/w, mL/g) of 100 mM sodium borate buffer (BBS) (pH 8.3). The mixtures were then filtrated with 3-ply gauze followed by ultracentrifuged for 40 min (40,000 g, at 4°C). The supernatant as crude ACE extracts was retained and stored at 5°C [24].
The ACE activity was assayed using the method described by Wu & Ding. It was based on the hydrolysis of hippuryl-L-histidyl-L-leucine (HHL) by ACE to hippuric acid (HA) and histidyl-leucine (HL) as products. The HA release from HHL was directly related to the ACE activity. One unit (U) of ACE was defined as the amount of enzyme catalyzing the release of 1 µmol/L HA from the substrate HHL per minute at 37°C. Briefly, 30 µL of ACE crude extracts were mixed with 100 µL of BBS (pH 8.3). The mixture was incubated at 37°C for 10 min. Then, 200 µL of 5 mmol/L HHL solution substrate were added and the reaction mixture was incubated at 37°C for 20 min. The reaction was stopped by the addition of 250 µL of 1 mol/L HCl. 10 µL of solution were analyzed by reversed-phase HPLC and detected at the wavelength of λ = 228 nm. The column was eluted with 20% acetonitrile (in water, v/v) containing 0.1% (v/v) TFA on AKATA purifier 10 with a flow rate of 1.0 mL/min. The blank experiment was executed with premixing 250 µL of 1 mol/L HCl and 30 µL of ACE crude extracts to inhibit the activity of ACE.
Evaluation of ACE inhibitory activity was assayed using the same method described in above section with some modifications. Briefly, 2 µL of ACE crude extracts were mixed with 80 µL of 10 µmol/L each selected peptide solution. The mixture was incubated at 37°C for 10 min, after which 200 µL of 5 mmol/L HHL solution substrate were added and the reaction mixture was incubated at 37°C for 20 min. Finally, 250 µL of 1 mol/L HCl were added to stop the reaction and 10 µL of solution were used to analyze HA release from HHL by reversed-phase HPLC with the same condition described above and detected at the wavelength of λ = 228 nm. Controls with equal volume of BBS as sample substitute were included for each measurement, and the blank experiment was executed with premixing 250 µL of 1 mol/L HCl and 2 µL of ACE crude extracts to inhibit the activity of ACE, firstly.
The evaluation of ACE inhibition was based on the measurement of the HA peak areas, and the degree of ACE inhibition (%) was calculated according to Eq.1: [drawing 1] (Eq.1) […]

[2] = tested on: spontaneously hypertensive rats (SHR/Slac); test: Systolic blood pressure of SHR after single intragastric administration (tail-cuff); assay type: in vivo, rat; conditions: for dose-dependence of the lowering SBP effect: 0.75 versus […] BW, relative lowering SBP rate
Procedure: The spontaneously hypertensive, strain SHR/Slac male rats (Production Permit Number: SCXK (Shanghai) 2007-0005; Body weight, average ∼400 g; Age, 20 weeks old), were purchased from Shanghai SLAC Laboratory Animal Co. Ltd. (Shanghai, China). The SHR were housed in cages and maintained under specific pathogen-free conditions on a cycle of 12 h of light and 12 h of darkness at Center of Experimental Animal, School of Pharmacy, Shanghai Jiao Tong University (Use Permit Number: SYXK (Shanghai) 2007-0025). The temperature and humidity in the cages were controlled at 24±1°C and 60±5%, respectively. SHRs were acclimatized for 7 days prior to experimentation. The rats were fed a standard laboratory diet (SLACOM; Shanghai, China), and tap water was freely available. After the hexapeptide water-solution (dose, 1.5 mg/kg body weight) injection with intragastric administration in six SHR, the systolic blood pressure (SBP) of each rat was measured by the tail-cuff method with a programmable electrosphygmomanometer (model SoftronBP-98A; Softron Beijing Incorporated, Beijing, China) at 1 h interval. A heater lamp was on the tail to improve signal quality. To obtain an accurate SBP reading, rats were first habituated to the SBP measurement device. Definitive measurements began when rats remained unperturbed into the chamber throughout the inflation-deflation cycles. The SBP in each SHR with administration of distilled water (2 mL) was used as the control value. The data are expressed as means and standard errors (n = 6).
To evaluate whether the lowering SBP effect was the dose-dependence relative to the test peptides, the SHR were also treated with 0.75 mg/kg BW peptides water-solution as above program. And the relative lowering SBP effect was calculated as the following equation (Eq.2): [drawing 2] (Eq.2) where SBPinitial is the initial SBP values of SHR right before the peptide administration, SBPlowest is the lowest SBP value obtained within 5 h after the administration with the tested peptides.

SERCA 2a gene = test: Quantitative real time-PCR of SERCA 2a gene mRNA in SHR heart; assay type: in vivo, rat; conditions: 3 h after feeding the peptide, GAPDH reference, three biological replicates
Procedure: Quantitative real time-PCR (qRT-PCR) analysis was performed using SYBR Premix EX Taq (TaKaRa) on a Rotor-Gene R[…] detection system (Corbett Research) as described by Zhang et al. (2010) with the exception of the annealing temperature at 58 °C when using the primers […]) and […]), [26]. Gene GAPDH was used as reference gene with primer […]) and […]). Three biological replicates were used, and each with three technical repeats.

ACE = conditions: literature value; cited from earlier work
Description: In the past decades, researchers have focused on the natural nutraceutical resources and investigated the potential antihypertensive activity in vitro by ACE-inhibitory activity, [5]. Some natural phytochemicals from plants, including rutin, quercetin glycoside, epicatechin-tetramer and cyanidin-3-O-sambubioside have been extensively studied as a substitute for chemo-pharmaceuticals [6]–[8]. Also, some antihypertensive peptides have been identified from hydrolyzed or fermented milk and other dietary sources. Among them, the Isoleucine-Proline-Proline (IPP) and Valine-Proline- ...

In the case of C[C@H](CS)C(=O)N1CCC[C@H]1C(=O)O [captopril], the “decrease in SBP” value (SHR; male SHR, 50 mg/kg, 4–6 h after administration) is given as “about 53±4 mmHg” and the “effect on postprandial blood glucose levels” value [1] is given as “no significant effect”.

With Isoleucine-Proline-Proline [IPP] the “ACE inhibition rate (%)” value (ACE from rabbit lungs) was 56.97±2.40^a %, the “dose-dependence of the lowering SBP effect” value [2] was “dose-dependent effect” and the “transcriptional level of SERCA 2a gene” value (SERCA 2a gene) was 3.80 times of the control. For the same molecule, the IC50 (ACE) was 5 µM and the “decrease in SBP” value (SHR; SHR, 0.3 mg/kg BW) was 21.7±4.1 mmHg.

With “Isoleucine-Proline-Proline-Valine- Proline-Proline [IPPVPP]” the “ACE inhibition rate (%)” value (ACE from rabbit lungs) was 13.17±0.25^c %, the “dose-dependence of the lowering SBP effect” value [2] was “did not” and the “transcriptional level of SERCA 2a gene” value (SERCA 2a gene) was 2.70 times of the control.

In the case of “KVLPVPQ [heptapeptide KVLPVPQ (β-casein 169–175aa)]”, the “maximal decrease in SBP” value (SHR; SHR, 2 mg/kg BW) is given as 31.5±5.6 mmHg.

For Valine-Proline-Proline [VPP], the “ACE inhibition rate (%)” value (ACE from rabbit lungs) is given as 37.62±6.68^b % and the IC50 (ACE) is given as 9 µM.

With “Valine-Proline-Proline-Isoleucine-Proline-Proline [VPPIPP]” the “ACE inhibition rate (%)” value (ACE from rabbit lungs) was 34.71±4.38^b %, the “relative lowering SBP rate, comparison between peptides” value ([2]; 0.75 mg/kg BW, intragastric) was “did not show significantly different from IPPVPP and IPP” and the “dose-dependence of the lowering SBP effect” value [2] was “dose-dependent effect”. The “transcriptional level of SERCA 2a gene” value (SERCA 2a gene) was 3.98 times of the control.

For “YGLF [whey protein derived tetrapeptide]”, the “reduction of SBP” value (SHR; SHR, subcutaneous, 0.1 mg/kg BW) is given as 23±4 mmHg.
